In patent US20250228835A1, “PYRIDINYLOXYPYRIDINES AND RELATED COMPOUNDS AND THEIR USE IN TREATING MEDICAL CONDITIONS” (Rectify Pharmaceuticals, Inc., priority 2024, published 2025):
pEC50: −log10 of the molar value.

What was measured:
[1] = target: T1, ABCD2 WT (Homo sapiens, UniProt Q9UBJ2); experiment: D2 correction dose-response assay: ABCD2 WT HiBit protein expression; type: cell-based; details: HEK-293/ABCD2 WT cells, 24 hours treatment, HiBit luminescence; class combines EC50 and Mean MaxAct (fold); read-out: ABCD2 WT EC50, Emax
T1 construct: expressed in transfected cells
T1 sequence (Q9UBJ2 1-740): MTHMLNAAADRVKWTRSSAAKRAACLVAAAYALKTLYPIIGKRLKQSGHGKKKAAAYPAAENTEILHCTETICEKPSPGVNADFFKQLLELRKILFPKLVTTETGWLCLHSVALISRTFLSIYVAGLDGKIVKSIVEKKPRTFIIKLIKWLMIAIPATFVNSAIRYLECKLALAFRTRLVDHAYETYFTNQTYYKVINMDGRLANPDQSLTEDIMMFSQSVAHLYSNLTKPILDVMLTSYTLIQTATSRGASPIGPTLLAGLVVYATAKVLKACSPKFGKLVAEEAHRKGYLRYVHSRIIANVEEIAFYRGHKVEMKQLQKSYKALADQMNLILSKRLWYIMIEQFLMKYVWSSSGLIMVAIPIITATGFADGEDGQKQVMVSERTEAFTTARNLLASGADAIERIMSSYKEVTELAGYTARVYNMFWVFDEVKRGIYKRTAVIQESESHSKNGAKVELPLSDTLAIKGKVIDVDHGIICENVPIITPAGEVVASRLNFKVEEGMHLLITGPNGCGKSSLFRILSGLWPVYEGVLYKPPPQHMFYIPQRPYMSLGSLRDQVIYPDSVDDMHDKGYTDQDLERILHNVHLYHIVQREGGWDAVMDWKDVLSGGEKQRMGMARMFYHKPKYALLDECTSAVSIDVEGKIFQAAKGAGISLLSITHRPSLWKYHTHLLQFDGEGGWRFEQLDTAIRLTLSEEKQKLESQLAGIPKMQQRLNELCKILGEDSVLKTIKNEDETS
Procedure: Exemplary compounds were evaluated in a D2 correction dose-response assay.
To assess activity against ABCD2, the compounds were screened in an assay measuring protein expression, using cells transfected with cDNA encoding HiBit-tagged ABCD2 wild-type. Here we describe an assay for measuring the expression of the wild type of human ABCD2 (henceforth referred to as ABCD2 WT) and the use of this assay to measure the efficacy of compounds to increase the expression of ABCD2 WT. The assay was designed to characterize the efficacy and potency of compounds to increase the expression of ABCD2 WT by calculating an Emax and EC50 value. HEK-293 cells stably expressing ABCD2 WT (HEK-293/ABCD2 WT) were used for this assay and were maintained at 37° C. (5% CO2, humidified) in Dulbecco's Modified Eagle Medium (DMEM, Gibco product #12100) supplemented with 10% fetal bovine serum (Biosera product #FB-1058/500), 1% PenStrep (HDB product #15140-122), and 0.5 mg/mL puromycin (Gibco product #A11138-03). For the assay, the HEK-293/ABCD2 WT cells were seeded in white/opaque 384-well plates (Corning product #3570) at 10,000 cells/well in 20 μl growth medium and allowed to settle for 4 hours at 37° C. (5% CO2, humidified). Compound serial dilutions are prepared in DMSO as three hundred times (333×) the final concentration and using a dilution factor of 3 using Bravo (Agilent). After the four-hour incubation period, 60 nL of DMSO solutions are transferred to the assay plate.
Dose response curves include eleven doses with the top final concentration at 30 μM in 0.3% DMSO. Liquid handling is performed with ECHO 550 Acoustic Liquid Handler (Labcyte). After addition of compound treatment, cells are incubated for 24 hours at 37° C. (5% CO2, humidified). After the 24-hour treatment, plates are allowed to equilibrate to room temperature for 10 minutes. Using Dragonfly Automated Liquid Handler (TTP LabTech), 20 μl of HiBit lytic assay reagent (Promega, product #N3040), which is prepared according to manufacturer's instructions, is added to each well. The plates are rotated at room temperature for 2 minutes and incubated for 1 hour at 25° C. before luminescent signal is acquired using an EnVision Multimode Plate Reader (PerkinElmer).

[2] = target: T2, ABCC6 WT (Homo sapiens, UniProt O95255); experiment: ABCC6 WT assay: HiBit protein expression; type: cell-based; details: HEK-293 cells transiently expressing HiBit-tagged ABCC6 WT; 24 h treatment; top concentration 20 μM; read-out: ABCC6 WT EC50, Emax
T2 construct: expressed in transfected cells; host or cells: HEK-293 (transient, Lipofectamine 2000)
Description: To assess activity against ABCC6, compounds were screened in an assay measuring protein expression, using cells transfected with cDNA encoding HiBit-tagged ABCC6 wild-type.
Described here is an assay for measuring the expression of the wild type of human ABCC6 (henceforth referred to as ABCC6 WT) and the use of this assay to measure the efficacy of compounds to increase the expression of ABCC6 WT. The assay was designed to characterize the efficacy and potency of compounds to increase the expression of ABCC6 WT by calculating an Emax and EC50 value. HEK-293 cells transiently expressing ABCC6 WT (HEK-293/ACC6 WT) were used for this assay and were cultured at 37° C. (5% CO2, humidified) in Dulbecco's Modified Eagle Medium (DMEM, Gibco product #11965-092) supplemented with 10% fetal bovine serum. For the assay, HEK-293 cells were transfected with […]/10 cm plate of cDNA encoding HiBit-tagged ABCC6 wild-type using Lipofectamine 2000 (Thermo Fisher, product #11668019). Twenty-four hours after transfection, the HEK-293/ACC6 WT cells were seeded in white/opaque 384-well plates (PerkinElmer, cat. No. 6007688) at 10,000 cells/well in 20 μl growth medium and allowed to settle for 4 hours at 37° C. (5% CO2, humidified). Compound serial dilutions are prepared in growth medium as ten times (10×) the final concentration and using a dilution factor of 2. After the four-hour incubation period, 2.2 μL of the 10× dilutions are transferred to the assay plate.
Dose response curves include ten doses with the top final concentration at 20 μM in 0.15% DMSO. Liquid handling is performed with an Integra mini96-tip head (INTEGRA). After addition of compound treatment, cells are incubated for 24 hours at 37° C. (5% CO2, humidified). After the 24-hour treatment, plates are allowed to equilibrate for 15 minutes at room temperature. Using Integra mini-96, 20 μl of HiBit lytic assay reagent (Promega, product #N3040), which is prepared according to manufacturer's instructions, is added to each well. The plates are rotated at room temperature for 10 minutes and luminescent signal is acquired using an EnVision Multimode Plate Reader (PerkinElmer).
Results are presented below in Table 4 for ABCC6 WT.

T2 sequence (O95255 whole entry): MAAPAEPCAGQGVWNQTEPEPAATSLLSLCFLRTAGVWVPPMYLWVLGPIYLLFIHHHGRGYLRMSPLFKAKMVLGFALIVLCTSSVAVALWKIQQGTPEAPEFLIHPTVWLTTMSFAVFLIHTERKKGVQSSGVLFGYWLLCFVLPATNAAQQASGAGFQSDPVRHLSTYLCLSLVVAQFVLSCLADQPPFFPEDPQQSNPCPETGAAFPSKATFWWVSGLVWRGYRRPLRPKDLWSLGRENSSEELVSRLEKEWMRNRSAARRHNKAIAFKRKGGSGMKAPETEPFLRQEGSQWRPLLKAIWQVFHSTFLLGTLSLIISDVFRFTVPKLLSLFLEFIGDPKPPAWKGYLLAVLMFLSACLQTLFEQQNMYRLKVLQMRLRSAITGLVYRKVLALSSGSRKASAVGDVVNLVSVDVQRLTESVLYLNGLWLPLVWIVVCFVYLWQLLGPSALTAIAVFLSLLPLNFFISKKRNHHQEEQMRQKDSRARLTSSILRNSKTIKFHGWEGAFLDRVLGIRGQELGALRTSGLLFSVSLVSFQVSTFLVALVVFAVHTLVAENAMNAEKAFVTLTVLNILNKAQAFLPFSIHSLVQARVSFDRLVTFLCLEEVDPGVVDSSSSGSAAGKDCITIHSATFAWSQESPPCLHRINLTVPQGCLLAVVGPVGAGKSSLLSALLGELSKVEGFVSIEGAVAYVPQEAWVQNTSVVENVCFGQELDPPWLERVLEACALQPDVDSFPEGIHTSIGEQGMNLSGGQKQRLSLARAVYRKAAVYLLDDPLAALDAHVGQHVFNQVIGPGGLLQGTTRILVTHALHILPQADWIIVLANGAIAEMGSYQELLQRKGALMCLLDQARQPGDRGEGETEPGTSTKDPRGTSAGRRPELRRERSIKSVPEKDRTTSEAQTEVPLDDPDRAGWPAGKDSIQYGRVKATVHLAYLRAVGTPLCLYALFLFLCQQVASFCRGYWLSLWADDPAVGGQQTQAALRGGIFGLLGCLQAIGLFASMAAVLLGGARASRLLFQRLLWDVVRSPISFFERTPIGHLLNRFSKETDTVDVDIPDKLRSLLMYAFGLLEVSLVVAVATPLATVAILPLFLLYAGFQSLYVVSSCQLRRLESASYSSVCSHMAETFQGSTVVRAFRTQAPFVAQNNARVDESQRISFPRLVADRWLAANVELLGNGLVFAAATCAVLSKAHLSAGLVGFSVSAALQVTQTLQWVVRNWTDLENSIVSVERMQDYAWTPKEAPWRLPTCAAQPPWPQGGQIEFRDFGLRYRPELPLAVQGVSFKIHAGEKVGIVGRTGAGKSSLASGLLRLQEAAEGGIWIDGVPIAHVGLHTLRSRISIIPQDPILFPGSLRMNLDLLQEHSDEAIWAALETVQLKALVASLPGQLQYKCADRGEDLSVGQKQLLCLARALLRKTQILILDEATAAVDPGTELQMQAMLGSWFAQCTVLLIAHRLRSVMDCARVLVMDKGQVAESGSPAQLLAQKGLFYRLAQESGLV

Structure (SMILES)	pEC50 [1]	pEC50 [2]
Cc1cc(C(F)(F)F)nc(C2CC2)c1Oc1nc(-c2cncc(C#N)c2)ccc1S(=O)(=O)NC1CCOCC1 [Compound I-306]	5.00 to 6.00	> 6.00
Cc1nc(C(F)(F)F)nc(C2CC2)c1Oc1nc(-c2cncc(C#N)c2)ccc1S(=O)(=O)Nc1cnn(C)c1 [Compound I-309]	5.00 to 6.00	5.00 to 6.00
Cc1nc(C(F)(F)F)nc(C2CC2)c1Oc1nc(-c2cncc(C#N)c2)ccc1S(=O)(=O)Nc1cccnc1 [Compound I-310]	5.00 to 6.00	> 6.00
Cc1nc(C(F)F)nc(C2CC2)c1Oc1nc(-c2cncc(C#N)c2)ccc1S(=O)(=O)NC1CC1 [Compound I-314]	< 4.60	≤ 4.60
CNS(=O)(=O)c1ccc(-c2cncc(C#N)c2)nc1Oc1c(C)nc(C(F)(F)F)nc1C1CC1 [Compound I-315]	4.60 to 5.00	5.00 to 6.00
Cc1cc(C)c(Oc2nc(-c3cccc(C#N)c3)ccc2S(=N)(=O)C2CC2)c(C)n1 (stereo not drawn) [Compound I-316]	4.60 to 5.00	5.00 to 6.00

Further lines, results first:

pEC50 [1]	pEC50 [2]	Structure (SMILES)
5.00 to 6.00	> 6.00	Cc1cc(C(F)(F)F)nc(C2CC2)c1Oc1nc(-c2cncc(C#N)c2)ccc1S(=O)(=O)NC1COC1 [Compound I-305]
5.00 to 6.00	5.00 to 6.00	Cc1cc(C)c(Oc2nc(-c3c[nH]c(=O)c(C#N)c3)ccc2NS(C)(=O)=O)c(C)n1 [Compound I-307]
< 4.60	5.00 to 6.00	CNS(=O)(=O)c1ccc(-c2cncc(C#N)c2)nc1Oc1nc(C2CC2)sc1C [Compound I-308]
5.00 to 6.00	5.00 to 6.00	Cc1cc(C)[n+]([O-])c(C)c1Oc1nc(-c2cncc(C#N)c2)ccc1NS(C)(=O)=O [Compound I-311]
< 4.60	> 4.60	CNS(=O)(=O)c1ccc(-c2cncc(C#N)c2)nc1Oc1nc(C)sc1C1CC1 [Compound I-312]
< 4.60	5.00 to 6.00	CNS(=O)(=O)c1ccc(-c2cncc(C#N)c2)nc1Oc1c(C)nc(C(F)F)nc1C1CC1 [Compound I-313]
